Experimental data taken from ChEMBL document CHEMBL2331147, “Scutellarin from Scutellaria baicalensis suppresses adipogenesis by upregulating PPARα in 3T3-L1 cells” (J Nat Prod, 2013).
Activity calls are given as the source filed them. The rule behind the calls is not given here.

Tests used:
[1] = system: 3T3-L1; assay: Antiadipogenic activity in mouse 3T3L1 cells assessed as decrease in intracellular lipid accumulation incubated for 8 days followed by compound wash out measured for 60 mins by Oil Red O staining-based phase contrast microscopic analysis; type: functional, cell-based
[2] = system: 3T3-L1; assay: Effect on PPARdelta mRNA expression in mouse 3T3L1 cells at 10 to 100 uM after 8 days by RT-PCR analysis; type: functional, cell-based
[3] = system: 3T3-L1; assay: Antiadipogenic activity in mouse 3T3L1 cells assessed as downregulation of LPL mRNA expression at 10 to 100 uM after 8 days by RT-PCR analysis; type: functional, cell-based
[4] = system: 3T3-L1; assay: Antiadipogenic activity in mouse 3T3L1 cells assessed as downregulation of C/EBPalpha mRNA expression after 8 days by RT-PCR analysis; type: functional, cell-based
[5] = system: 3T3-L1; assay: Cytotoxicity against mouse 3T3L1 cells assessed as cell viability at < 100 uM after 48 hrs by MTT assay; type: cell-based; settings: 3t3-l1, 48 h
[6] = system: 3T3-L1; assay: Antiadipogenic activity in mouse 3T3L1 cells assessed as upregulation of PPARalpha mRNA expression after 8 days by RT-PCR analysis; type: functional, cell-based
[7] = system: 3T3-L1; assay: Downregulation of C/EBPbeta mRNA expression in mouse 3T3L1 cells at 10 to 100 uM after 8 days by RT-PCR analysis; type: functional, cell-based
[8] = system: 3T3-L1; assay: Antiadipogenic activity in mouse 3T3L1 cells assessed as downregulation of PPARgamma mRNA expression after 8 days by RT-PCR analysis; type: functional, cell-based

## O=C(O)[C@H]1O[C@@H](Oc2cc3oc(-c4ccc(O)cc4)cc(=O)c3c(O)c2O)[C@H](O)[C@@H](O)[C@@H]1O [SCUTELLARIN]
[1]
  Activity: Dose-dependent effect
[2]
  Activity: inactive
[3]
  Activity: Active
[4]
  Activity: Dose-dependent effect
[5]
  Activity: Non-toxic
[6]
  Activity: Dose-dependent effect
[7]
  Activity: inactive
[8]
  Activity: Dose-dependent effect
